According to US6426331B1, “Inhibitors of STAT function” (Tularik Inc., priority 1998, dated 2002):

Target: T1, STAT6 (Homo sapiens, UniProt P42226)
T1 sequence (P42226 1-847): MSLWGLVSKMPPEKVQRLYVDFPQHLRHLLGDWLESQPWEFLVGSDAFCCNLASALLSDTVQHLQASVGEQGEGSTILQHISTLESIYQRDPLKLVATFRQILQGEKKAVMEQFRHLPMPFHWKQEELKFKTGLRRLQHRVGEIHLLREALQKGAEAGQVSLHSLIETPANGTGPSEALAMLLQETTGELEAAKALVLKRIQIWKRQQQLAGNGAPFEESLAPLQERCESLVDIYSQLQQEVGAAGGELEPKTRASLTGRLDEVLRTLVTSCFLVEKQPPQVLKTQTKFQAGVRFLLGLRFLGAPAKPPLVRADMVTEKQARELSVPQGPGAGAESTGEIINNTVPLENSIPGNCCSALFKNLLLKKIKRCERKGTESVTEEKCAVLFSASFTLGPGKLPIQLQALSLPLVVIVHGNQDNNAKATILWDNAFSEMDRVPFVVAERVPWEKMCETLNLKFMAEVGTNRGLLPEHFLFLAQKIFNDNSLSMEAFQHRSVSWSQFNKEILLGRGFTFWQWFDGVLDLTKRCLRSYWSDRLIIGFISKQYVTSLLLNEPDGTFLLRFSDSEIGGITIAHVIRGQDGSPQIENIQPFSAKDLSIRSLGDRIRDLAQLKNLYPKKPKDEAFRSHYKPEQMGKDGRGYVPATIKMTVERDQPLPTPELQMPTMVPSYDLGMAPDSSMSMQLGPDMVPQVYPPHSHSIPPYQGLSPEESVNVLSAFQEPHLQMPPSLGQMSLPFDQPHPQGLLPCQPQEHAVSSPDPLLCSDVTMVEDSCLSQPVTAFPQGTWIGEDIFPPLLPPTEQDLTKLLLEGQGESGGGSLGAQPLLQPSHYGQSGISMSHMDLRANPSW
Assay: Inhibition of STAT6 binding (duplex formation)
Settings: STAT6 binding
Procedure: The compounds of the present invention can be evaluated for STAT binding activity using methods such as those described in U.S. Pat. No. 6,207,391 (for STAT6 binding). Other assays for STAT binding can be found in, for example, U.S. Pat. Nos. 5,618,693, 5,639,858 and 5,756,700.
Using methods similar to those described in Examples 1 and 2, the compounds provided in Table 1 were prepared and evaluated as inhibitors of STAT6 binding (duplex formation). The assay is described in U.S. Pat. No. 6,207,391, filed Mar. 31, 1998. In each of the tables below: a + symbol indicates and IC50 of >100 μM; a ++ symbol indicates and IC50 of 50-100 μM; a +++ symbol indicates and IC50 of 1-50 μM; and a ++++ symbol indicates and IC50 of <1.0 μM.

Row | SMILES | IC50 (Table 4) | IC50 (Table 5)
1 | CC(C)(C)c1ccc(CN(C(=O)C2CCCN2C(=O)C(NC(=O)C=Cc2ccc(OP(=O)(O)O)cc2)C(C)(C)C)c2ccccc2)cc1 (stereo not drawn) [drawing 70: H, 4-t-butyl] | 1000 to 50000 nM | 
2 | CC(=O)NCc1cccc(CN(Cc2cccc(C(N)=O)c2)C(=O)C2CCCN2C(=O)C(NC(=O)C=Cc2ccc(OP(=O)(O)O)cc2)C(C)(C)C)c1 (stereo not drawn) [drawing 71: 3-CONH2,3-CH2NHAc] |  | 1000 to 50000 nM
3 | CC(=O)NCc1cccc(CN(Cc2ccc(C(N)=O)cc2)C(=O)C2CCCN2C(=O)C(NC(=O)C=Cc2ccc(OP(=O)(O)O)cc2)C(C)(C)C)c1 (stereo not drawn) [drawing 71: 4-CONH2,3-CH2NHAc] |  | < 1000 nM
4 | CC(=O)NCc1ccc(CN(Cc2ccc(C(N)=O)cc2)C(=O)C2CCCN2C(=O)C(NC(=O)C=Cc2ccc(OP(=O)(O)O)cc2)C(C)(C)C)cc1 (stereo not drawn) [drawing 71: 4-CONH2,4-CH2NHAc] |  | < 1000 nM
5 | CC(C)(C)C(NC(=O)C=Cc1ccc(OP(=O)(O)O)cc1)C(=O)N1CCCC1C(=O)N(Cc1ccc(C#N)cc1)Cc1ccc(C(N)=O)cc1 (stereo not drawn) [drawing 71: 4-CONH2,4-CN] |  | < 1000 nM
6 | CC(C)(C)C(NC(=O)C=Cc1ccc(OP(=O)(O)O)cc1)C(=O)N1CCCC1C(=O)N(Cc1ccccc1)Cc1ccc(C(N)=O)cc1 (stereo not drawn) [drawing 71: 4-CONH2, H] |  | < 1000 nM
